The subject of test [1] is Sprague-Dawley (SD) rats. Kind of test: Prophylactic treatment, acute kidney dysfunction following renal ischemia (renal artery clamping). Format: in vivo, rat. The protocol: Plasma creatinine and urea were determined at different times. Data were analyzed by two way ANOVA using Bonferroni test for significance against the saline-treated group (n=3 per group; sal n=6).
(§1) Animals. Sprague-Dawley (SD) rats (male, weighing from 300 to 330 g) were obtained from Charles River Inc. Animals were maintained on standard laboratory chow under a 12:12 light:dark cycle.
Surgical preparation. The rats were anesthetized with Isoflurane 2.5% for the duration of the experiment. Animals were placed under radiant warmer to keep the temperature at 37.5° C. A blood sample (0.5 ml) was collected via tail vein artery before the renal artery clamping. Once the animal was anesthetized, placed in a supine position, a 1.5 cm flank incision was made on the right side of the abdominal wall. The right kidney was then exposed and the ureter, renal artery and renal vein were carefully dissected and ligated. The kidney was removed after cutting renal pedicle. A same incision was made on the left side of the abdominal wall. The left kidney is exposed and the renal vascular pedicle is carefully dissected. The renal vascular pedicle was then occluded by placing a vascular clip (Micro Serrefine™, Fine Science Tools) for a period of 30 or 45 minutes. This renal vascular pedicle clamping produced an acute renal artery occlusion (RAO). The kidney was inspected for ischemia as well as for good reperfusion after removing vascular clip for 2 minutes. The wound of abdominal wall was closed in two layers. The muscular layer was closed with a running 3-0 silk suture and the skin was closed with suture clips (Fine Science Tools). 21 hours after right nephrectomy and left renal artery clipping procedure, the rats were put in the metabolic cages for urine collection (in pre-weighed Tube 50 ml) for 3 hours. Urine volume was measured by weighing the tube containing urine. Then, the animals were anesthetized with Isoflurane 2.5%. Left kidney was removed and kept in formalin for future histology. […]

For test [2], the system named is Sprague-Dawley (SD) rats. Kind of test: Chronic infusion, acute kidney dysfunction following renal ischemia. The note with it: FIG. 5. Format: in vivo, rat. The protocol: After removing the renal artery clamps, peptide #2 or #33 was infused at two doses using intraperitoneally implanted Alzet™ minipumps (2ML1; delivery rate 10 μl/h). Plasma creatinine and BUN were determined at the indicated times. Data were analyzed by two way ANOVA using Bonferroni test for significance against the saline-treated group (n=3 per group; sal n=6); and
(§2) Surgical preparation. The rats were anesthetized with Isoflurane 2.5% for the duration of the experiment. Animals were placed under radiant warmer to keep the temperature at 37.5° C. A blood sample (0.5 ml) was collected via tail vein artery before the renal artery clamping. Once the animal was anesthetized, placed in a supine position, a 1.5 cm flank incision was made on the right side of the abdominal wall. The right kidney was then exposed and the ureter, renal artery and renal vein were carefully dissected and ligated. The kidney was removed after cutting renal pedicle. A same incision was made on the left side of the abdominal wall. The left kidney is exposed and the renal vascular pedicle is carefully dissected. The renal vascular pedicle was then occluded by placing a vascular clip (Micro Serrefine™, Fine Science Tools) for a period of 30 or 45 minutes. This renal vascular pedicle clamping produced an acute renal artery occlusion (RAO). The kidney was inspected for ischemia as well as for good reperfusion after removing vascular clip for 2 minutes. The wound of abdominal wall was closed in two layers. The muscular layer was closed with a running 3-0 silk suture and the skin was closed with suture clips (Fine Science Tools). 21 hours after right nephrectomy and left renal artery clipping procedure, the rats were put in the metabolic cages for urine collection (in pre-weighed Tube 50 ml) for 3 hours. Urine volume was measured by weighing the tube containing urine. Then, the animals were anesthetized with Isoflurane 2.5%. Left kidney was removed and kept in formalin for future histology. Blood was collected by cardiac puncture into a heparinized syringe (3 ml) and immediately transferred into appropriately labeled tubes that contain heparin as the anticoagulant. Following collection, all blood samples were kept on ice and centrifuged for 2 min at 13000 rpm. Plasma and urine aliquots (400 μl) were removed and stored at −80° C.
In order to test the effect of chronic infusion of the bifunctional hormone on kidney function on kidney injury, peptides #2 or #33 were infused at 1.5 or 15 μg/kg/h for 24 h after renal artery clamp removal. Plasma creatinine and urea nitrogen were determined at 24 h after the injury. The experimental procedures (animal model, dosing solutions) were the same as those described in Example 5 above.

In test [3] the test system is Sprague-Dawley (SD) rats. Put plainly: Post-injury (therapeutic) treatment, acute kidney dysfunction following renal ischemia. It counts as in vivo, rat. The note with it: 15 μg/kg/h for 2 h after clamp removal, FIG. 4. Here is the method: Peptides #2 and #33 were infused for 2 h after the removal of the renal clamps in the rat model of renal ischemia. Blood samples were collected at the indicated times and plasma creatinine and urea were determined. Data were analyzed by two way ANOVA using Bonferroni test for significance against the saline-treated group (n=3 per group; sal n=6);
as §2
Preparation of dosing solutions. Peptides (#2 and #33) were also made up fresh daily in a 0.1% HSA saline solution (33 μl of 30% HSA in […] saline) at concentration of 100 μg/100 μl. […]
In order to verify if short infusions of the peptides post-injury (therapeutic treatment) would be beneficial to reduce kidney injury, peptides #2 or #33 were infused at 15 μg/kg/h for 2 h after renal artery clamp removal. Plasma creatinine and urea were determined at different times. […]

Test [4] concerns Sprague-Dawley (SD) rats. Kind of test: Effect on angiotensin II-induced hypertension in SD rat. It counts as in vivo. The note with it: Ang II infusion, FIG. 2.
Description: BNP (Natrecor®) was approved by the FDA for lowering blood pressure in hypertensive crisis. Its natural homolog, ANP, was also shown to rapidly reduce blood pressure and is useful as a therapeutic in hypertensive crisis. Activation of renin-angiotensin system is implicated in several medical indications involving hypertension. Therefore, a rat model in which blood pressure was raised with the continuous infusion of angiotensin II was used, and the potency/efficacy of native ANP (peptide #2 in the figures) and the bifunctional hormone of SEQ ID NO: 33 (peptide #33 in the figures) to reduce blood pressure was tested following intravenous bolus injections of the peptides in SD rats.
as §1
Surgical preparation. The rats were anesthetized with isoflurane 2.5% for the duration of the experiment. Animals were placed under radiant warmer to keep the temperature at 37.5° C. The carotid artery was catheterized (Polyethylene™ Tubing PE90) for continuous arterial blood pressure recording with a pressure transducer (Statham) connected to a multichannel recorder (TA240 Gould). […] During this period, the stability of blood pressure was assessed. […]

The mark [5] stands for this setting: 15 μg/kg/h infused 1 h before and 1 h after renal artery clamping, vs saline group, each time point, FIG. 3.
Setting [6] is: 1.5 or 15 μg/kg/h for 24 h after clamp removal (Alzet minipumps), vs saline-treated animals at 24 h.
[7] abbreviates: later time points 21 h and 27 h.

Here are results for 1 compound from US8822413B2, “Bifunctional hormone having alpha-MSH activity and natriuretic peptide activity and uses thereof” (Theratechnologies Inc., priority 2007, dated 2014).

Bridge positions count the residues as written; N and C are the ends. Square brackets hold non-standard residues; d marks the D form. Peptide text beside a SMILES is read from it.

Turning to `CC[C@H](C)[C@@H]1NC(=O)[C@H](CCCNC(=N)N)NC(=O)[C@H](CC(=O)O)NC(=O)[C@H](CCSC)NC(=O)[C@H](CCCNC(=N)N)NC(=O)CNC(=O)CNC(=O)[C@H](Cc2ccccc2)NC(=O)[C@@H](NC(=O)[C@H](CCSC)NC(=O)[C@@H]2CCCN2C(=O)[C@H](CCCCN)NC(=O)CNC(=O)[C@H](Cc2c[nH]c3ccccc23)NC(=O)[C@H](CCCNC(=N)N)NC(=O)[C@@H](Cc2ccccc2)NC(=O)[C@H](Cc2c[nH]cn2)NC(C)=O)CSSC[C@@H](C(=O)N[C@@H](CC(N)=O)C(=O)N[C@@H](CO)C(=O)N[C@@H](Cc2ccccc2)C(=O)N[C@@H](CCCNC(=N)N)C(=O)N[C@@H](Cc2ccc(O)cc2)C(N)=O)NC(=O)CNC(=O)[C@H](CC(C)C)NC(=O)CNC(=O)[C@H](CO)NC(=O)[C@H](CCC(N)=O)NC(=O)[C@H](C)NC(=O)CNC1=O` [SEQ ID NO: 33, Ac-H-f-R-W-G-K-P-M-[C-F-G-G-R-M-D-R-I-G-A-Q-S-G-L-G-C]-N-S-F-R-Y-NH2] (Ac-H[dF]RWGKPMCFGGRMDRIGAQSGLGCNSFRY-NH2; disulfide 9-25), in the test on Sprague-Dawley (SD) rats [1] (setting [5]), the “blood urea nitrogen (BUN)” value is recorded as “significantly reduced the elevation” and the plasma creatinine entry is “significantly reduced the elevation”. The “diminishing kidney injury, compared with native ANP” value in the test on Sprague-Dawley (SD) rats [1] (prophylactic use, 15 μg/kg/h) is “as effective as native ANP”. The “dose dependence of reduction in the blood markers of renal ischemia” value in the test with Sprague-Dawley (SD) rats [2] (1.5 and 15 μg/kg/h for 24 h) is reported as “dose-dependent reduction”. Moreover, in the test on Sprague-Dawley (SD) rats [2] (setting [6]), the BUN result is “reduced plasma creatinine and BUN significantly”; the plasma creatinine entry was “reduced plasma creatinine and BUN significantly”. For the same compound, in the test with Sprague-Dawley (SD) rats [2] (24-hour infusion), the “reduction in BUN levels, compared with native ANP” value is on record as “more pronounced reduction” and the “reduction in creatinine levels, compared with native ANP” value is on record as “more pronounced reduction”. In addition, in the test on Sprague-Dawley (SD) rats [3] (at 4 h), the BUN result is “prevented the rise” and the plasma creatinine result is on record as “prevented the rise”. In the test on Sprague-Dawley (SD) rats [3] (setting [7]), the “reducing BUN levels, compared with native ANP” value is “more effective than native ANP” and the “reducing creatinine levels, compared with native ANP” value is “more effective than native ANP”. For the same compound, the “effect on blood pressure raised by angiotensin II” value in the test on Sprague-Dawley (SD) rats [4] (iv bolus doses of 400 μg/kg and above) is recorded as “effect similar to that of ANP”. Also, in the test on Sprague-Dawley (SD) rats [4] (iv bolus doses of up to 300 μg/kg), the “effect on blood pressure raised by angiotensin II” value is reported as “did not induced hypotension”.
